Activity calls are given as the source filed them. No rule for the calls is given here.
These compounds were tested against Bcl-2-related protein A1 (Homo sapiens) (UniProt Q16548) (assay: inhibitors of Bim binding to Bfl-1, dose response, biochemical, multiplexed, bead-based flow cytometry (AID 1320; also: test concentration not given here)). Conditions: Bim peptide-Bfl-1 binding, fluorescence.
Bcl-2-related protein A1 (Homo sapiens), sequence (Q16548 whole entry, looked up): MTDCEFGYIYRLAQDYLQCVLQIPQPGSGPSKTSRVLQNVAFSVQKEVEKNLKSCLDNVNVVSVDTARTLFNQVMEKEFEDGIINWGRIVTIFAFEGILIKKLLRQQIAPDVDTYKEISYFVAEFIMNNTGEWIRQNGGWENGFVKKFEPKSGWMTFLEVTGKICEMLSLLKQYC

| Compound | percent span (inhibition) |
| --- | --- |
| CCN(CC)c1ccc(NC(=O)c2ccc(=O)[nH]c2)cc1S(=O)(=O)Nc1ccccc1OC | inactive |
| CCOc1cc(CNc2ccc(N3CCCCC3)cc2)cc(Br)c1OCC(=O)NC(C)(C)C | inactive |
| Cc1ccc(S(=O)(=O)NC(=O)COc2ccccc2C)cc1 | inactive |
| CC(C)=C1C(=O)NN(c2ccc(C)c(Cl)c2)C1=O | inactive |
| O=C1C=C(Nc2ccccc2)C(=O)c2ccccc21 | inactive |
| COc1ccc(Cl)cc1-n1c(C)cc(C=O)c1C | inactive |
| O=C(CSc1nnc(-c2ccccc2)c(-c2ccccc2)n1)N1CCc2ccccc21 | inactive |
| COc1ccc(NC(=O)c2ccco2)cc1NC(=O)c1ccco1 | inactive |
| COc1ccc2oc(-c3ccccc3)c(C(=O)N3CCOCC3)c2c1 | inactive |
| CN1CCS/C1=C/C=C1/SC(=S)N(Cc2ccccc2)C1=O | inactive |
| CCOC(=O)c1sc(NC(=O)c2ccncc2)c(C#N)c1C | inactive |
| Cc1ccccc1-c1nc(-c2ccc(NC(=O)c3ccc4c(c3)OCO4)cc2)no1 | inactive |
| Cc1ccc(-c2cc(C(=O)Nc3ccccn3)c3ccccc3n2)o1 | inactive |
| CS(=O)(=O)NN1C(=O)c2ccccc2NC1c1cccs1 (stereo not given) | inactive |
| COc1ccc(N2CCN(C(CNS(=O)(=O)c3ccc4c(c3)OCCO4)c3ccco3)CC2)cc1 (stereo not given) | inactive |
| COc1cc(/C=C2/NC(=O)N(Cc3ccccc3F)C2=O)cc(OC)c1O | inactive |
| CCCCN(C(=O)CCC(=O)Nc1cc(C)on1)C(C(=O)NC(C)(C)C)c1cccc(OC)c1OC (stereo not given) | inactive |
| CCOc1cc(/C=N/NC(N)=O)ccc1OCC(=O)Nc1ccc(C)c(C)c1 | inactive |
| CCN(CC)c1ccc(NC(=O)c2cccc(C)c2)cc1S(=O)(=O)Nc1ccccc1OC | inactive |
| O=C(Nc1ccccc1N1CCOCC1)c1cccs1 | inactive |
| COc1ccc(C(=O)/C=C/c2cc(OC)c(O)c(OC)c2)c(F)c1 | inactive |
| COC(=O)c1ccc(/C=N/NC(=O)CC(=O)NCc2cccnc2)cc1 | inactive |
| CCc1ccc(NC(=O)CC2NCCNC2=O)cc1 (stereo not given) | inactive |
| COc1ccc(OC)c(Nc2ccc(C(=O)O)cc2[N+](=O)[O-])c1 | inactive |

| Compound | percent span (inhibition) |
| --- | --- |
| COc1ccc(/C=C/C(=O)Nc2sc(Cc3ccccc3)c(C)c2C(N)=O)cc1 | inactive |
| Cc1nnc2ccc(-c3cccc(NC(=O)c4ccco4)c3)nn12 | inactive |
| Cn1c(CNc2nc(-c3ccccc3)cs2)nnc1SCC(=O)N1CCc2ccccc21 | inactive |
| COC(=O)/C(=C/c1ccc(F)cc1)NC(C)=O | inactive |
| Oc1ccc(C=NCC2COc3ccccc3O2)cc1 (stereo not given) | inactive |
| CCCCCCc1cc2cc(C(=O)Nc3ccccc3)c(=O)oc2cc1O | inactive |
| COc1ccc(NC(=O)COc2ncnc3ccccc23)cc1S(=O)(=O)N1CCOCC1 | inactive |
| OCCC1CN(Cc2ccc3ncccc3c2)CCN1Cc1ccccc1 (stereo not given) | inactive |
| Cc1cc(/C=C(/C#N)C(=O)Nc2ccc(Cl)cc2)c(C)n1-c1cccnc1 | inactive |
| CC[n+]1c(/C=C/C=C/N(C(C)=O)c2ccccc2)sc2ccccc21 | inactive |
| COCCN=c1scc(-c2cccs2)n1/N=C/c1ccc(O)c(O)c1O | inactive |
| CN(Cc1ccccc1)c1nc2c(c(=O)[nH]c(=O)n2C)n1C | inactive |
| CCOC(=O)c1c2c3c(cccc3[nH]c1=O)C(=O)c1ccccc1-2 | inactive |
| COc1ccc(NS(=O)(=O)c2cc(NC(=O)c3ccc(C)o3)ccc2N2CCCCC2)cc1 | inactive |
| Cn1c(=O)c2cc(S(=O)(=O)Nc3cc(C(=O)O)cc(C(=O)O)c3)ccc2n(C)c1=O | inactive |
| COc1ccc2nc(C)cc(SCC(=O)N/N=C/c3ccc(O)c(O)c3)c2c1 | inactive |
| COc1ccc(C(=O)NC(=S)N2CCNC(=O)C2)cc1Br | inactive |
| CCN(CC)c1ccc(NC(=O)c2ccccc2)cc1S(=O)(=O)Nc1ccccc1OC | inactive |
| COc1ccc(NC(=O)c2c(F)cccc2F)cc1S(=O)(=O)Nc1ccc(Br)cc1 | inactive |
| Cc1cc(NC(=O)CCCC(=O)NCc2ccccc2)no1 | inactive |
| COc1cc(N2CCOCC2)ccc1C=C1C(=O)NC(=O)NC1=O | inactive |
| COC(=O)c1cccc(-n2c(C)cc(C=O)c2C)c1 | inactive |
| Cc1cccn2c(=O)c3cc(C(N)=S)c(=N)n(CCCN4CCOCC4)c3nc12 | inactive |
| CC(=O)NC(=O)Nc1sc(=S)n(C)c1C | inactive |

| Compound | percent span (inhibition) |
| --- | --- |
| O=C(O)CC/C(=C\c1cc([N+](=O)[O-])ccc1Cl)c1nc2ccccc2s1 | inactive |
| Cc1ccc2cc(C)c(Sc3nnnn3-c3ccccc3)nc2c1 | inactive |
| O=S1(=O)N=C(N(CCO)/N=C/c2ccncc2)c2ccccc21 | inactive |
| CCN(CC)c1nc(N)nc(N(c2ccccc2)c2ccccc2)n1 | inactive |
| O=C(O)CCN1C(=O)/C(=C\c2ccc(-c3nc4ccccc4s3)o2)SC1=S | inactive |
| O=C(CSc1nnc(-c2ccco2)n1Cc1ccccc1)c1ccccc1 | inactive |
| CCn1c(SCC(=O)Nc2ccccc2-c2ccccc2)nnc1-c1ccoc1C | inactive |
| CCN1CCN(c2cc(C)c3cc(NC(=S)N4CC(C)CC(C)C4)ccc3n2)CC1 (stereo not given) | inactive |
| CCCCC(=O)Nc1ccc(C(=O)N2CCC(C(=O)OCC)CC2)cc1 | inactive |
| COc1ccc(COC(=O)NNC(=O)c2ccccc2Cl)cc1 | inactive |
| O=C(COC(=O)CCCN=C1NS(=O)(=O)c2ccccc21)NC(=O)NC1CCCC1 | inactive |
| COc1ccccc1Nc1nc(-c2c(C)nc3ncccn23)cs1 | inactive |
| COc1ccc(N2C(=O)C(Cl)=C(Nc3ccccc3O)C2=O)cc1 | inactive |
| CC1C=CCC2C(=O)N(c3ccc(OC(=O)c4cccs4)cc3)C(=O)C12 (stereo not given) | inactive |
| Cc1ccc(Nc2nc(C)cs2)cc1 | inactive |
| CN(C)c1ccc(/C=C2/SC(=O)N(CCN=C3NS(=O)(=O)c4ccccc43)C2=O)cc1 | inactive |
| O=C(Nc1ccccc1)Nc1ccc2ncoc2c1 | inactive |
| O=C(O)/C=C/C(=O)NNC(=O)c1ccc(Br)cc1 | inactive |
| COc1ccc2nc(C)cc(SCC(=O)N/N=C/c3ccc(O)cc3O)c2c1 | inactive |
| COc1ccccc1N(C)S(=O)(=O)c1ccc(C(=O)OCC(N)=O)cc1 | inactive |
| COc1ccc(CC(=O)Nc2ccc(-c3nc4cc(C)ccc4o3)c(O)c2)cc1OC | inactive |
| COc1ccc2cc(CN(CCc3ccccc3)Cc3nnnn3CC3CCCO3)c(=O)[nH]c2c1 (stereo not given) | inactive |
